Measurements published in ChEMBL document CHEMBL3525933 (Drug Metab Dispos, 2012).

Experiments:
Plasma [1] = experiment: Drug metabolism in Wistar rat plasma assessed as retention time by HPLC-DAD analysis; assay type: ADME, cell-free
Plasma [2] = experiment: Drug recovery in Wistar rat plasma at 2000 ng/ml by HPLC-DAD analysis; assay type: ADME, cell-free
[3] = Drug excretion in streptozotocin-induced diabetic Wistar rat urine treated with mangiferin at 400 mg/kg, po administered as single dose by HPLC-DAD analysis; assay type: ADME, organism-based; parameters: dose 400 mg/kg, route oral; conditions: in vivo
[4] = Drug excretion in streptozotocin-induced diabetic Wistar rat feces treated with mangiferin at 400 mg/kg, po administered as single dose by HPLC-DAD analysis; assay type: ADME, organism-based; parameters: dose 400 mg/kg, route oral; conditions: in vivo
Rattus norvegicus = organism: Rattus norvegicus; experiment: Drug retention time in Wistar rat by HPLC-DAD analysis; assay type: ADME, organism-based
[5] = Drug excretion in conventional Wistar rat feces treated with mangiferin at 400 mg/kg, po administered as single dose by HPLC-DAD analysis; assay type: ADME, organism-based; parameters: dose 400 mg/kg, route oral; conditions: in vivo
[6] = Drug excretion in conventional Wistar rat urine treated with mangiferin at 400 mg/kg, po administered as single dose by HPLC-DAD analysis; assay type: ADME, organism-based; parameters: dose 400 mg/kg, route oral; conditions: in vivo

Retention_time (Plasma [1]) | Drug recovery (Plasma [2]) | Drug excretion [3] | Drug excretion [4] | Retention_time (Rattus norvegicus) | Drug excretion [5] | Drug excretion [6] | Structure (SMILES)
9.5 min | 85.1% |  |  |  |  |  | O=c1c(-c2ccc(O)cc2)coc2cc(O[C@@H]3O[C@H](CO)[C@@H](O)[C@H](O)[C@H]3O)ccc12 [DAIDZIN]
 |  | metabolite_detected | metabolite_detected | 36 min | metabolite_detected | metabolite_detected | O=c1c2cc(O)c(O)cc2oc2cc(O)cc(O)c12
